Measured values reported in patent publication US20050026785A1, “Novel phenyl-propargylether derivatives” (priority 2001, published 2005).

Tests used:
Assay type in all cases: in vivo
Phytophthora [1] = test: D-2b Systemic action against Phytophthora on tomato plants; details: test D-2b systemic (soil watering), untreated plants showed pathogen attack of 80-100%, read-out: inhibition of fungal infestation
Method: (§1) D-2: Action against Phytophthora on tomato plants
After a cultivation period of 3 weeks, tomato plants are watered with a spray mixture (0.02% active ingredient based on the volume of the soil) prepared from a wettable powder formulation of the test compound. […] After 96 hours, the treated plants are infected with a sporangia suspension of the fungus. Fungus infestation is evaluated after incubation of the infected plants for 4 days at 90-100% relative humidity and +20° C.

Phytophthora [2] = test: D-2a Residual-protective action against Phytophthora on tomato plants; details: test D-2a residual-protective, untreated plants showed pathogen attack of 80-100%, read-out: inhibition of fungal infestation
Method: as §1
(§2) a) Residual-protective action
After a cultivation period of 3 weeks, tomato plants are sprayed with a spray mixture (0.02% active ingredient) prepared from a wettable powder formulation of the test compound. After 48 hours, the treated plants are infected with a sporangia suspension of the fungus. Fungus infestation is evaluated after incubation of the infected plants for 5 days at 90-100% relative humidity and +20° C.

Phytophthora [3] = test: D-3a Residual-protective action against Phytophthora on potato plants; details: test D-3a residual-protective, potato plants (Bintje), untreated plants showed pathogen attack of 80-100%, read-out: inhibition of fungal infestation
Method: (§3) D-3: Action against Phytophthora on potato plants
as §2
(§4) 2-3 week old potato plants (Bintje variety) are sprayed with a spray mixture (0.02% active ingredient) prepared from a wettable powder formulation of the test compound. After 48 hours, the treated plants are infected with a sporangia suspension of the fungus. Fungus infestation is evaluated after incubation of the infected plants for 4 days at 90-100% relative humidity and +20° C.

Phytophthora [4] = test: D-3b Systemic action against Phytophthora on potato plants; details: test D-3b systemic (soil watering), potato plants (Bintje), untreated plants showed pathogen attack of 80-100%, read-out: inhibition of fungal infestation
Method: as §3
as §4, with “watered” for “sprayed”, “ingredient based on the volume of the soil)” for “ingredient)”, “compound. […]” for “compound.”, “C. Fungal infestation is effectively controlled with compounds of Tables 1 to 31.” for “C.”

Plasmopara viticola [5] = test: D-1b Residual-curative action against Plasmopara viticola on vines; details: test D-1b residual-curative, vine seedlings, untreated plants showed pathogen attack of 80-100%, read-out: inhibition of fungal infestation
Method: (§5) D-1: Action against Plasmopara viticola on vines
b) Residual-Curative Action
Vine seedlings are infected at the 4- to 5-leaf stage with a sporangia suspension of the fungus. After incubation for 24 hours in a humidity chamber at 95-100% relative humidity and +20° C., the infected plants are dried and sprayed with a spray mixture (0.02% active ingredient) prepared from a wettable powder formulation of the test compound. After the spray coating has dried, the treated plants are placed in the humidity chamber again. Fungus infestation is evaluated 6 days after infection.

Plasmopara viticola [6] = test: D-1a Residual-protective action against Plasmopara viticola on vines; details: test D-1a residual-protective, vine seedlings, untreated plants showed pathogen attack of 80-100%, read-out: inhibition of fungal infestation
Method: as §5, §2
Vine seedlings are sprayed at the 4- to 5-leaf stage with a spray mixture (0.02% active ingredient) prepared from a wettable powder formulation of the test compound. After 24 hours, the treated plants are infected with a sporangia suspension of the fungus. Fungus infestation is evaluated after incubation for 6 days at 95-100% relative humidity and +20° C.

Measured: inhibition at 200 ppm

C#CCOc1ccc(CCNC(=O)[C@@H](OCC#C)c2ccccc2)cc1OC [Compound E1.002, (S)-2-phenyl-N-[2-(3-methoxy-4-prop-2-ynyloxy-phenyl)-ethyl]-2-prop-2-ynyloxy-acetamide]
80 to 100%: all assays above

CCC#CCOc1ccc(CCNC(=O)[C@@H](OCC)c2ccccc2)cc1OC [Compound E1.151]
80 to 100%: Phytophthora [1] | Phytophthora [2]

C#CCOc1ccc(CCNC(=O)[C@@H](OCC#C)c2ccc(Cl)cc2)cc1OC [Compound E1.011, (S)-2-(4-chloro-phenyl)-N-[2-(3-methoxy-4-prop-2-ynyloxy-phenyl)-ethyl]-2-prop-2-ynyloxy-acetamide]
80 to 100%: all assays above
